experiment: log P determination by HPLC (EEC Directive 79/831 Annex V.A8, gradient method); assay type: physicochemical; settings: not given

Row | Physical data (logP) | Physical data: log P | Physical data: logP | Compound
1 | 2.99 |  |  | COCC(C)NC(=O)/C=C/c1c(-c2ccccc2Cl)nc2sc(C(F)(F)F)nn12 (racemic) [Example 0169]
2 | 3.81 |  |  | CC(NC(=O)/C=C/c1c(-c2ccccc2Cl)nc2sc(C(F)(F)F)nn12)c1ccccc1 (racemic) [Example 0189]
3 | 4.03 |  |  | CC(COc1ccccc1)NC(=O)/C=C/c1c(-c2ccccc2Cl)nc2sc(C(F)(F)F)nn12 (racemic) [Example 0194]
4 | 3.72 |  |  | CC(ONC(=O)/C=C/c1c(-c2ccccc2Cl)nc2sc(C(F)(F)F)nn12)c1ccccc1 (racemic) [Example 0213]
5 |  | 3.07 |  | COCC(C)NC(=O)/C=C/c1c(-c2ccccc2C)nc2sc(C(F)(F)F)nn12 (racemic) [Example 0240]
6 |  |  | 3.65 | CC(NC(=O)/C=C/c1c(-c2sccc2Cl)nc2sc(C(F)(F)F)nn12)C(F)(F)F (racemic) [Example 0922]
7 |  |  | 3.32 | CC(NC(=O)/C=C/c1c(-c2ccc(Cl)nc2)nc2sc(C(F)(F)F)nn12)C(F)(F)F (racemic) [Example 0935]
8 |  |  | 2.76 | CC(NC(=O)/C=C/c1c(-c2cccnc2Cl)nc2sc(C(F)(F)F)nn12)C(F)(F)F (racemic) [Example 0948]
9 |  |  | 4.07 | CC(NC(=O)/C=C/c1c(-c2ccccc2Cl)nc2sc(C(F)(F)C(F)(F)F)nn12)C(F)(F)F (racemic) [Example 0961]
10 |  |  | 4.19 | CC(NC(=O)/C=C/c1c(-c2ccc(F)cc2Cl)nc2sc(C(F)(F)C(F)(F)F)nn12)C(F)(F)F (racemic) [Example 0974]
11 |  |  | 3.81 | CC(NC(=O)/C=C/c1c(-c2nccs2)nc2sc(C(F)(F)C(F)(F)F)nn12)C(F)(F)F (racemic) [Example 0987]
12 | 3.63 |  |  | CC(NC(=O)/C=C/c1c(-c2ccccc2Cl)nc2sc(C(F)(F)F)nn12)C(F)(F)F (single isomer, unassigned) [Example 0184]
13 | 3.77 |  |  | CC(NC(=O)/C=C/c1c(-c2ccccc2Cl)nc2sc(C(F)(F)F)nn12)C(F)(F)F (single isomer, unassigned) [Example 0185]
14 | 2.62 |  |  | NC(=O)/C=C/c1c(-c2ccc(Cl)cc2)nc2sc(C(F)(F)F)nn12 [Example 0004]
15 | 2.88 |  |  | CNC(=O)/C=C/c1c(-c2ccc(Cl)cc2)nc2sc(C(F)(F)F)nn12 [Example 0005]
16 | 3.25 |  |  | CCNC(=O)/C=C/c1c(-c2ccc(Cl)cc2)nc2sc(C(F)(F)F)nn12 [Example 0006]
17 | 3.61 |  |  | CC(C)NC(=O)/C=C/c1c(-c2ccc(Cl)cc2)nc2sc(C(F)(F)F)nn12 [Example 0007]
18 | 4.23 |  |  | CC(C)(C)NC(=O)/C=C/c1c(-c2ccc(Cl)cc2)nc2sc(C(F)(F)F)nn12 [Example 0009]
19 | 3.31 |  |  | O=C(/C=C/c1c(-c2ccc(Cl)cc2)nc2sc(C(F)(F)F)nn12)NC1CC1 [Example 0011]
20 | 3.81 |  |  | O=C(/C=C/c1c(-c2ccc(Cl)cc2)nc2sc(C(F)(F)F)nn12)NC1CCC1 [Example 0012]
21 | 4.03 |  |  | O=C(/C=C/c1c(-c2ccc(Cl)cc2)nc2sc(C(F)(F)F)nn12)NC1CCCC1 [Example 013]

Row | Physical data (logP) | Physical data: log P | Physical data: logP | Compound
22 | 4.37 |  |  | O=C(/C=C/c1c(-c2ccc(Cl)cc2)nc2sc(C(F)(F)F)nn12)NC1CCCCC1 [Example 0014]
23 | 3.72 |  |  | O=C(/C=C/c1c(-c2ccc(Cl)cc2)nc2sc(C(F)(F)F)nn12)NCC1CC1 [Example 0015]
24 | 3.94 |  |  | CCC(C)NC(=O)/C=C/c1c(-c2ccc(Cl)cc2)nc2sc(C(F)(F)F)nn12 (stereo not drawn) [Example 0016]
25 | 4.32 |  |  | CCCC(C)NC(=O)/C=C/c1c(-c2ccc(Cl)cc2)nc2sc(C(F)(F)F)nn12 (stereo not drawn) [Example 0017]
26 | 4.27 |  |  | COCC(C)NC(=O)/C=C/c1c(-c2ccc(Cl)cc2)nc2sc(C(F)(F)F)nn12 (stereo not drawn) [Example 0018]
27 | 4.25 |  |  | CC(C)C(C)NC(=O)/C=C/c1c(-c2ccc(Cl)cc2)nc2sc(C(F)(F)F)nn12 (stereo not drawn) [Example 0023]
28 | 4.32 |  |  | CC(NC(=O)/C=C/c1c(-c2ccc(Cl)cc2)nc2sc(C(F)(F)F)nn12)c1ccccc1 (stereo not drawn) [Example 0038]
29 | 4.56 |  |  | CCC(NC(=O)/C=C/c1c(-c2ccc(Cl)cc2)nc2sc(C(F)(F)F)nn12)c1ccccc1 (stereo not drawn) [Example 0039]
30 | 4.51 |  |  | CC(COc1ccccc1)NC(=O)/C=C/c1c(-c2ccc(Cl)cc2)nc2sc(C(F)(F)F)nn12 (stereo not drawn) [Example 0043]
31 | 5.31 |  |  | CCC(NC(=O)/C=C/c1c(-c2ccc(Cl)cc2)nc2sc(C(F)(F)F)nn12)C1CCCCC1 (stereo not drawn) [Example 0045]
32 | 2.77 |  |  | CC(NC(=O)/C=C/c1c(-c2ccc(Cl)cc2)nc2sc(C(F)(F)F)nn12)c1ccccn1 (stereo not drawn) [Example 0052]
33 | 3.59 |  |  | O=C(/C=C/c1c(-c2ccc(Cl)cc2)nc2sc(C(F)(F)F)nn12)NOCC1CC1 [Example 0060]
34 | 4.18 |  |  | CC(ONC(=O)/C=C/c1c(-c2ccc(Cl)cc2)nc2sc(C(F)(F)F)nn12)c1ccccc1 (stereo not drawn) [Example 0062]
35 | 4.23 |  |  | CCC(CC)NC(=O)/C=C/c1c(-c2ccc(Cl)cc2)nc2sc(C(F)(F)F)nn12 [Example 0064]
36 | 3.42 |  |  | CN(C)C(=O)/C=C/c1c(-c2ccc(Cl)cc2)nc2sc(C(F)(F)F)nn12 [Example 0065]
37 | 4.16 |  |  | CCN(CC)C(=O)/C=C/c1c(-c2ccc(Cl)cc2)nc2sc(C(F)(F)F)nn12 [Example 0070]
38 | 4.31 |  |  | O=C(/C=C/c1c(-c2ccc(Cl)cc2)nc2sc(C(F)(F)F)nn12)N1CCCCC1 [Example 0071]
39 | 3.27 |  |  | O=C(/C=C/c1c(-c2ccc(Cl)cc2)nc2sc(C(F)(F)F)nn12)N1CCOCC1 [Example 0072]
40 | 3.67 |  |  | CC(C)NC(=O)/C=C/c1c(-c2cccc(Cl)c2)nc2sc(C(F)(F)F)nn12 [Example 0078]
41 | 4.27 |  |  | CC(C)(C)NC(=O)/C=C/c1c(-c2cccc(Cl)c2)nc2sc(C(F)(F)F)nn12 [Example 0080]
42 | 3.31 |  |  | O=C(/C=C/c1c(-c2cccc(Cl)c2)nc2sc(C(F)(F)F)nn12)NC1CC1 [Example 0082]

same assay, conditions: HPLC gradient method, acetonitrile/0.1% strength aqueous phosphoric acid or formic acid; preparation examples; read-out: log P

Row | chromatographic logP | Compound
43 | 3.91 | CSC[C@H](C)NC(=O)/C=C/c1c(-c2ccc(Cl)cc2Cl)nc2sc(C(F)(F)F)nn12 [Example 0001, (2E)-3-[6-(2,4-Dichlorophenyl)-2-(trifluoromethyl)imidazo[2,1-b][1,3,4]thiadiazol-5-yl]-N-[(1S)-1-methyl-2-(methylthio)ethyl]acrylamide]
44 | 2.48 | C[C@@H](C[S+](C)[O-])NC(=O)/C=C/c1c(-c2ccc(Cl)cc2Cl)nc2sc(C(F)(F)F)nn12 (stereo partly drawn) [Example 0002, (2E)-3-[6-(2,4-Dichlorophenyl)-2-(trifluoromethyl)imidazo[2,1-b][1,3,4]thiadiazol-5-yl]-N-[(1S)-1-methyl-2-(methylsulphinyl)ethyl]acrylamide]
45 | 3.03 | C[C@@H](CS(C)(=O)=O)NC(=O)/C=C/c1c(-c2ccc(Cl)cc2Cl)nc2sc(C(F)(F)F)nn12 [Example 0003, (2E)-3-[6-(2,4-Dichlorophenyl)-2-(trifluoromethyl)imidazo[2,1-b][1,3,4]thiadiazol-5-yl]-N-[(1S)-1-methyl-2-(methylsulphonyl)ethyl]acrylamide]
